This assay addresses Vitamin D3 receptor (Rattus norvegicus) (UniProt P13053). Nature of the assay: In vitro study, VDR binding assay were performed as previously described.
Chain of Vitamin D3 receptor (Rattus norvegicus) (P13053 whole entry, looked up): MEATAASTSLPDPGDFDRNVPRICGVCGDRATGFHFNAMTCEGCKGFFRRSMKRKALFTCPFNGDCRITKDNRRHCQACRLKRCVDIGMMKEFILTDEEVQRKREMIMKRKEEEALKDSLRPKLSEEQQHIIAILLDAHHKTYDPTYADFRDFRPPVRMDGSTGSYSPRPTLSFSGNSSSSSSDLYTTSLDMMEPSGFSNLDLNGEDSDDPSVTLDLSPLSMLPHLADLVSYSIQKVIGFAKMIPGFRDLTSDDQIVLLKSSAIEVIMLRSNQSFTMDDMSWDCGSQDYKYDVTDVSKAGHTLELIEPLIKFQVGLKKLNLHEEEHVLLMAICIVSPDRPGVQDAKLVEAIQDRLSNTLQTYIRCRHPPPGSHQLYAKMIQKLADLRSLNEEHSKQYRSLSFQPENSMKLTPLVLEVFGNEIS
On to `C=C1[C@H](O)CC(=C/C=C2\CCC[C@@]3(C)C2CCC3[C@@H](C)CCCC)C[C@H]1O` (some centres undefined) [Vitamin D analog, 9], for which affinity was put at a Ki of 0.3 nM.
Next, `C=C1[C@H](O)CC(=C/C=C2\CCC[C@@]3(C)C2CCC3[C@@H](C)CCCCO)C[C@H]1O` (some centres undefined) [Vitamin D analog, 7]: 0.3 nM.
Regarding `C=C1[C@H](O)CC(=C/C=C2\CCC[C@@]3(C)C2CCC3[C@H](C)CCCC)C[C@H]1O` (some centres undefined) [Vitamin D analog, 8], affinity was put at a Ki of 0.3 nM.
Take `C=C1[C@H](O)CC(=C/C=C2\CCC[C@@]3(C)C2CCC3[C@H](C)CCCCO)C[C@H]1O` (some centres undefined) [Vitamin D analog, 6]: the Ki (as a rule, a dissociation constant, usually derived from enzyme kinetics or from competition with a known ligand) was 0.2 nM.

These data come from BindingDB's records for doi:10.1016/j.bioorg.2013.01.001 (University of Wisconsin-Madison, 2013).
